Measured values: US20250059187A1, “COVALENTLY BINDING INHIBITORS OF G12S, G12D AND/OR G12E MUTANTS OF K-RAS GTPASE” (The Regents of the University of California, priority 2021, published 2025)

Legend:
[1] = test system: non-G12D mutation cancer cell lines (H1299, HCT116, A549, A375); test: Growth inhibition of non-G12D mutation cancer cell lines; format: cell-based
Procedure: (§1) Cells were seeded into 96-well white flat bottom plates (1,000 cells/well) (Corning) and incubated overnight. Cells were treated with the indicated compounds in a nine-point threefold dilution series (100 μL final volume) and incubated for 72 h. Cell viability was assessed using a commercial CellTiter-Glo (CTG) luminescence-based assay (Promega). Briefly, the 96-well plates were equilibrated to room temperature before the addition of diluted CTG reagent […] (1:4 CTG reagent:PBS). Plates were placed on an orbital shaker for 30 min before recording luminescence using a Spark 20M (Tecan) plate reader.

[2] = test system: AGS cell line (heterozygous KRAS^G12D/WT); test: In-cell covalent labeling by Western blot, AGS; format: cell-based
Procedure: (§2) Cells were passed for at least two generations after cryorecovery before they were used for assays. All cell lines were tested mycoplasma negative using MycoAlert™ Mycoplasma Detection Kit (Lonza). When indicated, cells were treated with drugs at 40-60% confluency at a final DMSO concentration of 1%. At the end of treatment period, cells were placed on ice. Unless otherwise indicated, adherent cells were washed once with ice-cold PBS (1 mL), scraped with a spatula, and pelleted by centrifugation (500×g, 5 min). Suspension cells were pelleted by centrifugation (500×g, 5 min), washed with 1 mL ice-cold PBS, and pelleted again. Cells were lysed in RIPA buffer supplemented with protease and phosphatase inhibitors (cOmplete and phosSTOP, Roche) on ice for 10 min. For RBD pulldown experiments, cells were lysed in Co-IP Lysis Buffer in lieu of RIPA buffer. Lysates were clarified by high-speed centrifugation (19,000×g, 10 min). Concentrations of lysates were determined with protein BCA assay (Thermo Fisher) and adjusted to 2 mg/mL with additional RIPA buffer (or Co-IP Lysis Buffer). […]
(§3) Unless otherwise noted, SDS-PAGE was run with Novex 12% Bis-Tris gel (Invitrogen) in MES running buffer (Invitrogen) at 200 V for 60 min following the manufacturer's instructions. […] The membrane was washed three times with TBST (5 min each wash) and imaged on a Li-COR Odyssey fluorescence imager.

[3] = test system: SW1990 (homozygous KRAS^G12D/G12D); test: In-cell covalent labeling and signaling by Western blot, SW1990; format: cell-based
Procedure: as §2, §3

wild type K-Ras = target: T1, wild type K-Ras (Homo sapiens, UniProt P01116); test: Covalent modification of test protein after incubation with compound; format: binding; details: 24-h incubation with 100 μM compound at 23° C. at pH 7.5
T1 construct: human K-Ras (wildtype, aa 1-169); 6xHis tag + TEV cleavage site (N, cleaved yes); made in house; host or cells: E. coli BL21(DE3)

[4] = test system: non-G12D mutation cell lines; test: In-cell covalent labeling by Western blot, non-G12D cell lines; format: cell-based
Procedure: as §2, §3

K-Ras(G13D) = target: T2, K-Ras(G13D) (Homo sapiens, UniProt P01116, G13D); test: Covalent modification of recombinant K-Ras(G13D) by whole-protein mass spectrometry; format: binding; details: GDP and GppNHp state
T2 construct: human K-Ras (G13D, aa 1-169); 6xHis tag + TEV cleavage site (N, cleaved yes); made in house; host or cells: E. coli BL21(DE3)
Procedure: (§4) Test compounds were prepared as 100× stock solutions in DMSO. K-Ras proteins were diluted with SEC Buffer (20 mM HEPES 7.5, 150 mM NaCl, 1 mM MgCl2) to 400 nM or 1 μM. In a typical reaction, 0.5 μL 100× compound stock was mixed with 50 μL diluted K-Ras protein, and the resulting mixture was incubated for the desired amount of time. The extent of modification was assessed by electrospray mass spectrometry using a Waters Xevo G2-XS system equipped with an Acquity UPLC BEH C4 1.7 μm column. The mobile phase was a linear gradient of 5-95% acetonitrile/water+0.05% formic acid. For kinetic measurements, a 2× compound solution was first prepared in SEC Buffer, which was then mixed with 400 nM K-Ras(G12D) protein at 1:1 (v/v) ratio. Injection time stamps were used to calculate elapsed time.

K-Ras G12E [5] = target: T3, K-Ras G12E (Homo sapiens, UniProt P01116, G12E); test: Covalent modification of recombinant K-Ras(G12E) by whole-protein mass spectrometry; format: binding; details: GDP and GppNHp state
T3 construct: human K-Ras (G12E, aa 1-169); 6xHis tag + TEV cleavage site (N, cleaved yes); made in house; host or cells: E. coli BL21(DE3)
Procedure: as §4

K-Ras G12E [6] = target: T3, K-Ras G12E; test: Covalent modification of test protein after incubation with compound; format: binding; details: 24-h incubation with 100 μM compound at 23° C. at pH 7.5
K-Ras G12D [7] = target: T4, K-Ras G12D (Homo sapiens, UniProt P01116, G12D); test: as above; format: binding; details: 24-h incubation with 100 μM compound at 23° C. at pH 7.5
T4 construct: human K-Ras (G12D, aa 1-169); 6xHis tag + TEV cleavage site (N, cleaved yes); made in house; host or cells: E. coli BL21(DE3)

BaF3/K-Ras(G12D) cells = test: Growth inhibition of BaF3/K-Ras(G12D) cells; format: cell-based, murine; details: Mus musculus, read-out: IC50, growth of BaF3/K-Ras(G12D) cells
Procedure: as §1

[8] = test system: AsPC-1 (homozygous KRAS^G12D/G12D); test: In-cell covalent labeling by Western blot, AsPC-1; format: cell-based
Procedure: as §2, §3

K-Ras G12D [9] = target: T4, K-Ras G12D; test: Covalent modification of recombinant K-Ras(G12D) by whole-protein mass spectrometry; format: binding
Procedure: as §4

[10] = test system: KRAS G12D mutation cancer cell lines; test: Growth inhibition of KRAS G12D cancer cell lines; format: cell-based
Procedure: as §1

[11] = test system: Ba/F3 KRAS G12D cells + interleukin-3; test: Growth inhibition of Ba/F3 KRAS G12D cells co-treated with IL-3; format: cell-based, murine; details: IL-3, 10 ng/mL
Procedure: as §1

K-Ras(G12D)·GDP = target: T5, K-Ras(G12D)·GDP (Homo sapiens, UniProt P01116, G12D); test: Detection of covalent modification of K-Ras(G12D) by tandem mass spectrometry; format: binding; details: 1 mM or 10 mM, 23° C., 1 h
T5 construct: human K-Ras (G12D, aa 1-169); 6xHis tag + TEV cleavage site (N, cleaved yes); made in house; host or cells: E. coli BL21(DE3)
Procedure: K-Ras(G12D) protein (1 μM, 100 μL) in PBS 7.4 was treated with β-propiolactone (1 mM or 10 mM) at 23° C. for 1 h. The reaction buffer was exchanged into Digestion Buffer (20 mM Tris 8.0, 2 mM CaCl2)) using a Zeba 0.5-mL desalting column (7K MWCO, Thermo Scientific). 80 μL of the resulting protein solution was mixed with 2 μL 200 mM DTT. The mixture was heated at 56° C. for 30 min. After cooling to 23° C., 4 μL 200 mM iodoacetamide was added. After 15 min at 23° C., 2.1 μL 200 mM DTT was added. After an additional 5 min, 500 ng trypsin was added to the mixture, and the samples were incubated at 37° C. overnight. 5 μL 10% formic acid was added to stop the digestion (final formic acid concentration: 0.5% v/v). The tryptic peptides were enriched and desalted using OMIX C18 tips (Agilent) following the manufacturer's instructions. Peptides (0.5% of total) were resolved on an Easy-Spray nano-HPLC column (Thermo Fisher ES800A, 150 mm length, […], […]) over a 54-min gradient of 2-37% acetonitrile-water+0.1% formic acid and analyzed by a Q-Exactive hybrid quadrupole-orbitrap mass spectrometer (MS1 resolution 70,000, AGC target: 3e6, range: 350-1500 m/z; MS2 resolution 17,500, AGC target: 5e4, max injection time: 120 ms, Top 10, NCE: 25%, dynamic exclusion: 15 s). […]

SMILES	toxicity to non-G12D mutation cancer cell lines [1]	in-cell labeling of endogenous K-Ras [2]	in-cell labeling of endogenous K-Ras(G12D) [3]	% covalent modification of wild type K-Ras (wild type K-Ras) [%]	in-cell labeling of K-Ras [4]	labeling of K-Ras G13D (K-Ras(G13D))	labeling of K-Ras G12E (K-Ras G12E [5])	% covalent modification of K-Ras G12E (K-Ras G12E [6]) [%]	% covalent modification of K-Ras G12D (K-Ras G12D [7]) [%]	IC50 (BaF3/K-Ras(G12D) cells) [nM]	in-cell labeling of endogenous K-Ras(G12D) [8]	time to complete labeling of K-Ras(G12D)·GDP (K-Ras G12D [9]) [min]	time to complete labeling of K-Ras(G12D)·GppNHp (K-Ras G12D [9]) [min]	kinact/KI (K-Ras G12D [9]; read-out: kinact/KI against K-Ras(G12D)·GDP) [M⁻¹ s⁻¹]	growth of KRAS G12D cancer cell lines [10]	sensitivity of cells co-treated with interleukin-3 [11]	alkylation of Asp12 in peptide LVVVGAD*GVGK (K-Ras(G12D)·GDP)
C#Cc1c(F)ccc2cc(O)cc(-c3ncc4c(N5C[C@H]6CC[C@@H](C5)N6C(=O)[C@@H]5OC(=O)C5(C)C)nc(OC[C@@]56CCCN5C[C@H](F)C6)nc4c3F)c12 [(R)-7]	minimal toxicity to the latter cell lines up to 10 μM concentration	only half of the two alleles	labeled endogenous K-Ras(G12D) completely	0	none in non-G12D mutation cell lines	not that of WT, G12E, G12S, or G13D	not that of WT, G12E, G12S, or G13D	0	100	73 ± 17	labeled endogenous K-Ras(G12D) completely	≤ 30	≤ 300	11000	selectively inhibited growth of cancer cells lines harboring K-Ras(G12D) mutation	lost sensitivity to (R)-7 up to 10 μM	
O=C1CCO1 [β-propiolactone]																	the mutant aspartate was covalently alkylated by a 2-carboxylethyl group
